The source of these data is patent US20110313156A1 (BOEHRINGER INGELHEIM INTERNATIONAL GMBH, priority 2008, published 2011).

For this assay, the target named is T1, His6-PDK1 (aa 52-556) (Homo sapiens, UniProt O15530).
T1 construct: 15 μL His6-PDK1 (aa 52-556) 3.33 ng/well); host or cells: baculovirus-infected insect cells
T1 sequence (O15530 52-556): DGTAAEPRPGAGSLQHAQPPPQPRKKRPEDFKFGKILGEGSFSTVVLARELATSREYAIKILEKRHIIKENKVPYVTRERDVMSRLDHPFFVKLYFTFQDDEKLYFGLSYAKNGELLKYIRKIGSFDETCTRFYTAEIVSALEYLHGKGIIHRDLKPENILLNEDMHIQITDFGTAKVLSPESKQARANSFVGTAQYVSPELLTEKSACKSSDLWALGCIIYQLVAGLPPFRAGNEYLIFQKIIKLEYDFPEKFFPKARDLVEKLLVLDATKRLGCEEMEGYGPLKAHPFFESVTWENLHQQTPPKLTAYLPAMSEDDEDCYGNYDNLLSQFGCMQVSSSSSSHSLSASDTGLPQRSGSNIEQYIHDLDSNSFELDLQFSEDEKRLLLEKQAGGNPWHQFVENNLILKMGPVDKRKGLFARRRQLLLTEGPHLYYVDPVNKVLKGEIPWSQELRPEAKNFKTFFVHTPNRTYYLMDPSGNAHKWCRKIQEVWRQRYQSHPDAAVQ
In words: PDK1 kinase assay III (with Tween 20). Type of assay: biochemical. The settings on record: compound at 10 μM; PDK1 kinase assay III (values without asterisk); read-out: % CTL (residual activity of the enzyme relative to DMSO control). In a few lines: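 Started with ATP, incubated 90 min at ambient temperature, then stopped with phosphoric acid. Asterisked values come from assay II (24 h or 5 min incubation).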
Consider `CN(C)Cc1ccc(Nc2ncc3cc(/C=C/CNC(=O)c4nc(Cl)cn(Cc5ccc(F)c(F)c5)c4=O)ccc3n2)cc1` [IV-61, 6-chloro-4-(3,4-difluorobenzyl)-N-{(2E)-3-[2-({4-[(dimethylamino)methyl]phenyl}amino)quinazolin-6-yl]prop-2-en-1-yl}-3-oxo-3,4-dihydropyrazine-2-carboxamide], for which the remaining activity at 10 µM was found to be 13.9%.

For `COC(=O)c1ccc(Nc2ncc3cc(/C=C/CNC(=O)c4c(C)n(C)n(Cc5ccc(F)c(F)c5)c4=O)ccc3n2)cc1`, the remaining activity at 10 µM was determined as 20.7%.

On to `Cc1c(C(=O)NC/C=C/c2ccc3nc(Nc4ccccc4)ncc3c2)c(=O)n(Cc2ccc(F)c(F)c2)n1C` [IV-5, 2-(3,4-difluorobenzyl)-1,5-dimethyl-3-oxo-N-{(2E)-3-[2-(phenylamino)quinazolin-6-yl]prop-2-en-1-yl}-2,3-dihydro-1H-pyrazole-4-carboxamide], for which the remaining activity at 10 µM is 13.6%.

Take `Cc1c(C(=O)NCC#Cc2ccc3nc(Nc4ccc(CN(C)C)cc4)ncc3c2F)c(=O)n(Cc2ccc(F)c(F)c2)n1C` [III-25, 2-(3,4-difluorobenzyl)-N-{3-[2-({4-[(dimethylamino)methyl]phenyl}amino)-5-fluoroquinazolin-6-yl]prop-2-yn-1-yl}-1,5-dimethyl-3-oxo-2,3-dihydro-1H-pyrazole-4-carboxamide]: the remaining activity at 10 µM worked out at 11.7%.

In the case of `CN(C)CCCNC(=O)c1ccc(Nc2ncc3cc(C#CCNC(=O)c4cncn(Cc5ccc(F)c(F)c5)c4=O)ccc3n2)cc1`, the remaining activity at 10 µM worked out at 18.3%.

Consider `COCCCNC(=O)c1ccc(Nc2ncc3cc(C#CCNC(=O)c4c(C)n(C)n(Cc5ccc(F)c(F)c5)c4=O)ccc3n2)cc1`, for which the remaining activity at 10 µM was determined as 12.1%.

In the case of `Cn1cc(C(=O)NC/C=C/c2ccc3c(c2)NC(=O)/C3=C\c2cnc[nH]2)c(=O)n(Cc2ccc(F)c(F)c2)c1=O` [I-43], the remaining activity at 10 µM was determined as 20.3%.

`CCNc1ncc2cc(C#CCNC(=O)c3cncn(Cc4ccc(F)c(F)c4)c3=O)ccc2n1`: the remaining activity at 10 µM worked out at 17.6%.

`COc1ccc(Nc2ncc3cc(C#CCNC(=O)c4c(C)n(C)n(Cc5ccc(F)c(F)c5)c4=O)ccc3n2)cc1`: the remaining activity at 10 µM amounted to 14.7%.

With `Cc1c(C(=O)NCC#Cc2ccc3nc(Nc4ccc(C(=O)N(C)CCCN(C)C)cc4)ncc3c2)c(=O)n(Cc2ccc(F)c(F)c2)n1C` [III-90], the remaining activity at 10 µM was 13.3%.

In the case of `Cc1c(C(=O)NCC#Cc2cc(OCCN)c3nc(Nc4ccccc4)ncc3c2)c(=O)n(Cc2ccc(F)c(F)c2)n1C`, the remaining activity at 10 µM stood at 9.8%.

Turning to `Cc1c(C(=O)NC/C=C/c2cc(OCCCN)c3nc(Nc4ccc(N5CCOCC5)cc4)ncc3c2)c(=O)n(Cc2ccc(F)c(F)c2)n1C`, the remaining activity at 10 µM worked out at 12.5%.

Consider `Cc1c(C(=O)NCC#Cc2ccc3nc(Nc4ccc(C(=O)N(C)C5CCN(C)CC5)cc4)ncc3c2)c(=O)n(Cc2ccc(F)c(F)c2)n1C`, for which the remaining activity at 10 µM came to 12.4%.

Regarding `Cc1c(C(=O)NC/C=C/c2ccc3nc(Nc4ccc(N(C)C5CCN(C)CC5)cc4)ncc3c2F)c(=O)n(Cc2ccc(F)c(F)c2)n1C` [IV-36, 2-(3,4-difluorobenzyl)-N-{(2E)-3-[5-fluoro-2-({4-[methyl(1-methylpiperidin-4-yl)amino]phenyl}amino)quinazolin-6-yl]prop-2-en-1-yl}-1,5-dimethyl-3-oxo-2,3-dihydro-1H-pyrazole-4-carboxamide], the remaining activity at 10 µM was 14.2%.

`Cc1c(C(=O)NCC#Cc2ccc3c(-c4ccccc4)n[nH]c3c2)c(=O)n(Cc2ccc(F)c(F)c2)n1C` [II-4, 2-(3,4-difluorobenzyl)-1,5-dimethyl-3-oxo-N-[3-(3-phenyl-1H-indazol-6-yl)prop-2-yn-1-yl]-2,3-dihydro-1H-pyrazole-4-carboxamide]: the remaining activity at 10 µM worked out at 16.9%.

As for `O=C(NC/C=C/c1cc(OC2CCNCC2)c2nc(Nc3ccc(N4CCOCC4)cc3)ncc2c1)c1cncn(Cc2ccc(F)c(F)c2)c1=O`, the remaining activity at 10 µM is 12.3%.
